These results are taken from patent US11612577B2, “Biomarkers of METAP2 inhibitors and applications thereof” (SynDevRx, Inc., priority 2018, dated 2023).

Where two headings read alike, the source gives them in different places.

For series [1] the following is noted: cited from earlier work.
For series [2] the following is noted: cited from earlier work. The source holds these as a separate data set.
For series [3] the following is noted: human, in vivo; cited from earlier work.
For series [4] the following is noted: requires extended intravenous administration; cited from earlier work.
The nature of series [5]: BYL-719 induced hyperglycemia in C57Bl/6 mice, ZGN-1061 pre-treatment. The series is classed as in vivo. The method, then: The following is an example showing that MetAP2 inhibitors, specifically ZGN-1061 can be used in combination with PI3K inhibitors, specifically BYL-719, to treat cancer and to attenuate treatment-induced metabolic dysfunction. In this example, male C57BI/6 mice, age 10-12 weeks, were used. The mice (n=8/treatment group) were administered doses of either vehicle control (10 mM phosphate in 5% mannitol, pH 7.2), ZGN-1061 alone, ZGN-1061 in combination with BYL-719 or BYL-719 alone, as indicated in Table 4. In Table 4, the time of dose indicates the time relative to the administration of BYL-719. Blood glucose was monitored using 10 ul of blood taken from the tail of the mice and a glucometer, starting prior to the BYL-719 administration (time 0) and then again at various times points (15, 30, 60, 90, 120 and 180 minutes) after the administration of BYL-719.

As for `CO[C@@H]1[C@H](OC(=O)/C=C/c2ccc(OCCN(C)C)cc2)CC[C@]2(CO2)[C@H]1[C@@]1(C)O[C@@H]1CC=C(C)C` [CKD-732], the MTD in series [1] (every fourth day schedule, confusion and insomnia) is recorded as 15 mg/m2/day. In addition, the body weight entry in series [2] (C57BL/6J mice and SD rats, 5 mg/kg/day) is reported as “weight loss”.

As for pembrolizumab, in series [3], the “patients with grade 3 or 4 hyperglycemia” value is 3-6% and the “patients with hyperglycemic events” value is listed as 45-49%.

Take `CO[C@@H]1[C@H](OC(=O)NC(=O)CCl)CC[C@]2(CO2)[C@H]1[C@@]1(C)O[C@@H]1CC=C(C)C` [TNP-470, chloroacetylcarbamoylfumagillol]: the toxicity in humans entry in series [1] (dose-limiting neurotoxicity) is “too toxic for human use”. The MTD in series [1] (in combination with paclitaxel, dosed three times per week, neuropsychiatric toxicities) is 60 mg/m2. For the same compound, the half-life result in series [4] is “short half-life”. For the same compound, in series [2] (mice, 15 or 20 mg/kg every other day), the obesity entry is on record as “prevention of obesity”. Further, the body weight result in series [2] (ob/ob mice, daily doses 2.5 mg/kg to 10 mg/kg) is “weight loss”.

Regarding `CO[C@@H]1[C@H](OC(=O)/C=C/C=C/C=C/C=C/C(=O)O)CC[C@]2(CO2)[C@H]1[C@@]1(C)O[C@@H]1CC=C(C)C` [fumagillin], in series [2] (C57BL/6 mice, oral 1 mg/kg daily), the body weight result is “weight loss”.

In the case of `CO[C@@H]1[C@H](OC(=O)N2CC(CCN3CCOCC3)C2)CC[C@]2(CO2)[C@H]1[C@@]1(C)O[C@@H]1CC=C(C)C` [ZGN-1061], in series [5] (pre-treatment 0.5 mg/kg SC at -4 h, -24 h or -72 h (QD x3) before BYL-719 45 mg/kg PO), the “hyperglycemia induced by BYL-719” value is reported as “attenuated hyperglycemia”.

Regarding `Cc1nc(NC(=O)N2CCC[C@H]2C(N)=O)sc1-c1ccnc(C(C)(C)C(F)(F)F)c1` [BYL-719, alpelisib], the blood glucose entry in series [5] (BYL-719 45 mg/kg PO, male C57Bl/6 mice) was “elicited robust hyperglycemia”.
